The subject of one assay is Wild-type mice. The assay can be described thus: acute exercise test to exhaustion after intraperitoneal injection. The class given is in vivo. The note with it: PF-429242 or vehicle, N=3, FIG. 14. As for the experimental part:
Exercise endurance: Mice will undergo a single bout of a graded exercise test to exhaustion using a 4-lane treadmill on a 0% incline, with an electric grid at the back of each treadmill. Three days before the endurance test, mice will have 3 days of acclimation at 10 m/min at 0% incline for 5 min. The test will involve a 5 min acclimation period on the treadmill (turned off), followed by: 5 m/min for 5 min; 10 m/min for 5 min; 15 m/min for 10 min; 25 m/min for 10 min; and finally, 30 m/min until exhaustion is reached. Exhaustion is defined as the inability of the mouse to resume running within 10 s after direct contact on the electric grid and inability to right itself when placed on its back.
Wild-type mice were treated with PF-429242 or vehicle via intraperitoneal injection, and subjected to an acute exercise test to exhaustion (N=3).

A further assay concerns the target T1, S1P (Mus musculus, UniProt Q9WTZ2).
T1 construct: from tissue; host or cells: mouse liver (in vivo, i.p. dosing; earlier mouse studies reported elsewhere)
T1 sequence (Q9WTZ2 187-1052): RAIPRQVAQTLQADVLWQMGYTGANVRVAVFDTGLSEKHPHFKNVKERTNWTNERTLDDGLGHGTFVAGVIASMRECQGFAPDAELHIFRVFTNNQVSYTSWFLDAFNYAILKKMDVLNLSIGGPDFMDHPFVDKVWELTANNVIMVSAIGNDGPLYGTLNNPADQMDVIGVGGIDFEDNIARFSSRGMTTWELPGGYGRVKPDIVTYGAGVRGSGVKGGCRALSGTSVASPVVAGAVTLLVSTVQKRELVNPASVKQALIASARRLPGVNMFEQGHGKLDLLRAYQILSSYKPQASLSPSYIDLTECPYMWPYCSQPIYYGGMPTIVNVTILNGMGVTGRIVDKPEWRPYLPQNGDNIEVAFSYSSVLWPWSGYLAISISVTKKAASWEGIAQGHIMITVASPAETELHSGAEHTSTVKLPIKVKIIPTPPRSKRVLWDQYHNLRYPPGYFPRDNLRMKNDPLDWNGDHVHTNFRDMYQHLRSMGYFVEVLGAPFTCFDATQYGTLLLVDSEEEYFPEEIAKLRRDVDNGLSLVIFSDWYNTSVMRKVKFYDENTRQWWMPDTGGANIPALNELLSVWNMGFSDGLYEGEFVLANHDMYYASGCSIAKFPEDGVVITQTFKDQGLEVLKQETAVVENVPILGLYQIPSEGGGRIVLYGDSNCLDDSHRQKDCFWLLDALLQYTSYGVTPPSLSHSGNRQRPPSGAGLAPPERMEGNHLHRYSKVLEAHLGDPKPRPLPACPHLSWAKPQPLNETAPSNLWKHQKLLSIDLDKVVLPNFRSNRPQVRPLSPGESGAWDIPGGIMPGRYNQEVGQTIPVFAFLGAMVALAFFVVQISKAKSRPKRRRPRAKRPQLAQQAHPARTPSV
The note with it: 30 mg/kg i.p. injection every 6 hrs for 24 hr; cited from earlier work.

Consider `CCN(CC)Cc1ccc(C(=O)N(CCc2ccccc2OC)[C@@H]2CCNC2)cc1` [PF-429242], for which the exercise tolerance result in the assay with Wild-type mice is on record as “enhanced exercise tolerance”. For the same compound, the “S1P inhibition in mouse liver” value on S1P is recorded as “effectively inhibits S1P”.

The values are drawn from patent publication US11534423B2, “Methods and compositions for improving exercise endurance, performance, or tolerance” (Washington University, priority 2019, dated 2022).
